Experiment: Viscosity, Brookfield RVT Viscometer, Spindle F (Example 6)
Assay type: physicochemical
Details: compared with SCI
Procedure: Compositions of the inventive shampoos can have a viscosity ranging from 120,000 cps to 3,000,000 cps. Viscosity can be measured using suitable viscometer known to those of skill in the art. The preferred viscosity range is 1,000,000 cps-2,000,000 cps using a Brookfield RVT Viscometer, Spindle F at 0.5 rpm for 90 sec, with around 1,500,000 cps being the most preferred.
The viscosity of various combinations of propanediol, SCI and SLMI was measured using a Brookfield RVT Viscometer, Spindle F.

Question: With CCCCCCCCCCCC(=O)OC(C)CS(=O)(=O)[O-].[Na+] (stereo not shown) [SLMI, sodium lauroyl methyl isethionate] as the molecule, how does the “Effect of an increase in the percentage of SLMI on viscosity of the shampoo compositions” value read?
Answer: The value was “significantly increases the viscosity”.

From US11406575B2, “Water-free/anhydrous cream shampoo” (Henkel IP & Holding GmbH, priority 2020, dated 2022)
